Literature values as cited in publication PMC4387854 (Bioorganic & medicinal chemistry, 2013).
Marks after values point to notes of the source that are not given here.

Columns and labels:
[1] = female rats with MNU-initiated mammary tumors; ref Grubbs et al. 8
[2] = preclinical evaluation in rats and dogs or in human trials

For `CC(=C/C=C/C(C)=C/C(=O)O)/C=C1\CCCc2ccccc21` [9cUAB30, (2E,4E,6Z,8Z)-8-(3’,4’-Dihydro-1’(2H)-naphthalen-1’-ylidene)-3,7-dimethyl-2,3,6-octatrienoinic acid], the “Serum Triglyceride Increase (%)” value [1] is listed as 65% ^d and the “Increase in serum TG” value [2] is listed as “no increase”.
